Test results from ChEMBL document CHEMBL1139511, “AFMoC enhances predictivity of 3D QSAR: a case study with DOXP-reductoisomerase” (J Med Chem, 2005).

Biological target: T1, 1-deoxy-D-xylulose 5-phosphate reductoisomerase (Escherichia coli K-12, UniProt P45568)
T1 sequence (P45568 whole entry): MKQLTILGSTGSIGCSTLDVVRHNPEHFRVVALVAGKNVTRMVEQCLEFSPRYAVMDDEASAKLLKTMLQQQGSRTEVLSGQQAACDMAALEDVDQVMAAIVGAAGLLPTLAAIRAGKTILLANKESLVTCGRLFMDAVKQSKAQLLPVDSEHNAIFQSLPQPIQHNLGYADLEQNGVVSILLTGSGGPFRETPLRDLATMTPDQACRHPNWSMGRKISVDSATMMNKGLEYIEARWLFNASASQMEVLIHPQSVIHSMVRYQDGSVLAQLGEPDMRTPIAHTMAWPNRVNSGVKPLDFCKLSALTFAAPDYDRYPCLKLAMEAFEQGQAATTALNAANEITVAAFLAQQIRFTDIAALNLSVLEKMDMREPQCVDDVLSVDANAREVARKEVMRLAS
Experiment: Inhibitory concentration against DOXP reductoisomerase

Row | IC50 | SMILES
1 | 7.08 µM | O=C(NCC(=O)N(O)CCCP(=O)(O)O)C1CC1
2 | 14.1 µM | COc1ccc(CC(=O)NCC(=O)N(O)CCCP(=O)(O)O)cc1OC
3 | 14.1 µM | O=C(N(O)CCCP(=O)(O)O)C(F)(F)F
4 | 2.4 µM | O=C(c1ccc(-c2ccccc2)cc1)N(O)CCCP(=O)(O)O
5 | 1 µM | O=C(CCCOc1ccccc1)NCC(=O)N(O)CCCP(=O)(O)O
6 | 50.1 µM | CC(O)CC(=O)N(O)CCCP(=O)(O)O (stereo unspecified)
7 | 11 µM | CC(C)(C)C(=O)N(O)CCCP(=O)(O)O
8 | 1.7 µM | CCCCCCCC(=O)N(O)CCCP(=O)(O)O
9 | 100 µM | COC(=O)c1ccccc1C(=O)N(O)CCCP(=O)(O)O
10 | 6.46 µM | O=CN(O)CC(Cc1ccccc1)CP(=O)(O)O (stereo unspecified)
11 | 0.229 µM | O=C(c1cccc2ccccc12)N(O)CCCP(=O)(O)O
12 | 50.1 µM | O=C(c1ccccc1O)N(O)C1CCC(P(=O)(O)O)C1 (stereo unspecified)
13 | 24 µM | CC(C)CC(=O)N(O)CCCP(=O)(O)O
14 | 25.7 µM | NCCCC(=O)N(O)CCCP(=O)(O)O
15 | 1.82 µM | O=C(CN(Cc1ccccc1)CP(=O)(O)O)NO
16 | 40.7 µM | NCCCCCC(=O)N(O)CCCP(=O)(O)O
17 | 5.13 µM | O=C(NCC(=O)N(O)CCCP(=O)(O)O)c1ccc(OC(F)(F)F)cc1
18 | 50.1 µM | O=C(CCc1ccccc1)N(O)CCCP(=O)(O)O
19 | 6.61 µM | CCCC(CCN(O)C(C)=O)P(=O)(O)O (stereo unspecified)
20 | 1.82 µM | O=C(c1ccccc1O)N(O)CCCP(=O)(O)O
21 | 15.8 µM | CCOC(=O)C(=O)N(O)C1CCC(P(=O)(O)O)C1 (stereo unspecified)
22 | 0.1 µM | O=C(c1ccccc1)N(O)CCCP(=O)(O)O
23 | 20 µM | CCC(C(=O)NCC(=O)N(O)CCCP(=O)(O)O)c1ccccc1 (stereo unspecified)
24 | 17 µM | O=C(CCCc1c[nH]c2ccccc12)NCC(=O)N(O)CCCP(=O)(O)O

Row | SMILES | IC50
25 | NC(CCP(=O)(O)O)C(=O)NO (stereo unspecified) | 9.77 µM
26 | CC(=O)N(O)C/C=C/P(=O)(O)O | 0.0646 µM
27 | NCCC(=O)N(O)CCCP(=O)(O)O | 15.8 µM
28 | CCC(CCN(O)C(C)=O)P(=O)(O)O (stereo unspecified) | 0.708 µM
29 | CC(=O)N(O)CCCP(=O)(O)O [FR-900098] | 0.0282 µM
30 | CC(=O)N(O)C1CCC(P(=O)(O)O)C1 (stereo unspecified) | 2.34 µM
31 | CC(=O)N(O)CC(C)CP(=O)(O)O (stereo unspecified) | 0.646 µM
32 | O=C(CNCP(=O)(O)O)NO | 16.2 µM
33 | O=C(C1CC1)N(O)CCCP(=O)(O)O | 36.3 µM
34 | CCC(CCN(O)C=O)P(=O)(O)O (stereo unspecified) | 1.78 µM
35 | CCCC(CCN(O)C=O)P(=O)(O)O (stereo unspecified) | 8.13 µM
36 | O=C(CCCP(=O)(O)O)NO | 0.257 µM
37 | O=C(C(Cl)Cl)N(O)CCCP(=O)(O)O | 0.178 µM
38 | CC(C)C(CCN(O)C=O)P(=O)(O)O (stereo unspecified) | 6.61 µM
39 | CN(CC(=O)NO)CP(=O)(O)O | 31.6 µM
40 | CS(=O)(=O)N(O)CCCP(=O)(O)O | 38 µM
41 | CC(=O)N(O)CCC(C)P(=O)(O)O (stereo unspecified) | 0.0537 µM
